{"source": "the supplement of paper PMC10307832", "assay_in_all_cases": "relative viability (nuclei count vs DMSO), 5 days (fraction); higher = more cells survive", "key": {"SK-MES-1": {"system": "SK-MES-1", "method_in_brief": "(§1)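 Lung cancer cell lines, seeded in 1536-well plates, were treated the following day by pin tool with a single drug or with five library-drug doses (not always all listed) in √10 steps on top of a fixed anchor-drug dose. Cells were fixed and nuclei stained in one step after 5 days, and nuclei were counted. Relative viability is the nuclei count for treated wells divided by that for vehicle wells, reported as medians of duplicate plates.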"}, "RERF-LC-KJ": {"system": "RERF-LC-KJ", "method_in_brief": "as §1"}, "NCI-H1792": {"system": "NCI-H1792", "method_in_brief": "as §1"}, "EPLC-272H": {"system": "EPLC-272H", "method_in_brief": "as §1"}, "NCI-H596": {"system": "NCI-H596", "method_in_brief": "as §1"}, "HCC-15": {"system": "HCC-15", "method_in_brief": "as §1"}, "HCC-78": {"system": "HCC-78", "method_in_brief": "as §1"}, "NCI-H647": {"system": "NCI-H647", "method_in_brief": "as §1"}, "COR-L 105": {"system": "COR-L 105", "method_in_brief": "as §1"}, "NCI-H661": {"system": "NCI-H661", "method_in_brief": "as §1"}, "NCI-H358": {"system": "NCI-H358", "method_in_brief": "as §1"}, "LCLC-97TM1": {"system": "LCLC-97TM1", "method_in_brief": "as §1"}, "SW 1573": {"system": "SW 1573", "method_in_brief": "as §1"}, "NCI-H522": {"system": "NCI-H522", "method_in_brief": "as §1"}, "NCI-H1395": {"system": "NCI-H1395", "method_in_brief": "as §1"}, "NCI-H2009": {"system": "NCI-H2009", "method_in_brief": "as §1"}, "NCI-H650": {"system": "NCI-H650", "method_in_brief": "as §1"}, "HCC-366": {"system": "HCC-366", "method_in_brief": "as §1"}, "ABC-1": {"system": "ABC-1", "method_in_brief": "as §1"}, "NCI-H1993": {"system": "NCI-H1993", "method_in_brief": "as §1"}, "HCC-827": {"system": "HCC-827", "method_in_brief": "as §1"}}}
{"smiles": "Oc1nc(-c2ccc(C(F)(F)F)cc2)nc2c1CSCC2", "note": "[XAV939] + Cc1nc(Nc2ncc(C(=O)Nc3c(C)cccc3Cl)s2)cc(N2CCN(CCO)CC2)n1 [Dasatinib] (partner 0.075 µM)", "values": [{"measurement": "relative viability", "setting": "SK-MES-1; first compound 0.08 µM", "result": 0.339}, {"measurement": "relative viability", "setting": "SK-MES-1; first compound 0.253 µM", "result": 0.344}, {"measurement": "relative viability", "setting": "SK-MES-1; first compound 0.8 µM", "result": 0.392}, {"measurement": "relative viability", "setting": "SK-MES-1; first compound 2.53 µM", "result": 0.284}, {"measurement": "relative viability", "setting": "RERF-LC-KJ; first compound 0.08 µM", "result": 0.77}, {"measurement": "relative viability", "setting": "RERF-LC-KJ; first compound 0.253 µM", "result": 0.643}, {"measurement": "relative viability", "setting": "RERF-LC-KJ; first compound 0.8 µM", "result": 0.55}, {"measurement": "relative viability", "setting": "RERF-LC-KJ; first compound 2.53 µM", "result": 0.46}, {"measurement": "relative viability", "setting": "NCI-H1792; first compound 0.08 µM", "result": 0.877}, {"measurement": "relative viability", "setting": "NCI-H1792; first compound 0.253 µM", "result": 0.809}, {"measurement": "relative viability", "setting": "NCI-H1792; first compound 0.8 µM", "result": 0.87}, {"measurement": "relative viability", "setting": "NCI-H1792; first compound 2.53 µM", "result": 0.725}, {"measurement": "relative viability", "setting": "EPLC-272H; first compound 0.08 µM", "result": 0.385}, {"measurement": "relative viability", "setting": "EPLC-272H; first compound 0.253 µM", "result": 0.403}, {"measurement": "relative viability", "setting": "EPLC-272H; first compound 0.8 µM", "result": 0.355}, {"measurement": "relative viability", "setting": "EPLC-272H; first compound 2.53 µM", "result": 0.247}, {"measurement": "relative viability", "setting": "NCI-H596; first compound 0.08 µM", "result": 0.584}, {"measurement": "relative viability", "setting": "NCI-H596; first compound 0.253 µM", "result": 0.549}, {"measurement": "relative viability", "setting": "NCI-H596; first compound 0.8 µM", "result": 0.708}, {"measurement": "relative viability", "setting": "NCI-H596; first compound 2.53 µM", "result": 0.563}, {"measurement": "relative viability", "setting": "HCC-15; first compound 0.08 µM", "result": 0.633}, {"measurement": "relative viability", "setting": "HCC-15; first compound 0.253 µM", "result": 0.463}, {"measurement": "relative viability", "setting": "HCC-15; first compound 0.8 µM", "result": 0.601}, {"measurement": "relative viability", "setting": "HCC-15; first compound 2.53 µM", "result": 0.54}, {"measurement": "relative viability", "setting": "HCC-78; first compound 0.08 µM", "result": 0.37}, {"measurement": "relative viability", "setting": "HCC-78; first compound 0.253 µM", "result": 0.398}, {"measurement": "relative viability", "setting": "HCC-78; first compound 0.8 µM", "result": 0.338}, {"measurement": "relative viability", "setting": "HCC-78; first compound 2.53 µM", "result": 0.399}, {"measurement": "relative viability", "setting": "NCI-H647; first compound 0.08 µM", "result": 0.164}, {"measurement": "relative viability", "setting": "NCI-H647; first compound 0.253 µM", "result": 0.207}, {"measurement": "relative viability", "setting": "NCI-H647; first compound 0.8 µM", "result": 0.201}, {"measurement": "relative viability", "setting": "NCI-H647; first compound 2.53 µM", "result": 0.147}, {"measurement": "relative viability", "setting": "COR-L 105; first compound 0.08 µM", "result": 0.348}, {"measurement": "relative viability", "setting": "COR-L 105; first compound 0.253 µM", "result": 0.378}, {"measurement": "relative viability", "setting": "COR-L 105; first compound 0.8 µM", "result": 0.315}, {"measurement": "relative viability", "setting": "COR-L 105; first compound 2.53 µM", "result": 0.273}, {"measurement": "relative viability", "setting": "NCI-H661; first compound 0.08 µM", "result": 1}, {"measurement": "relative viability", "setting": "NCI-H661; first compound 0.253 µM", "result": 0.851}, {"measurement": "relative viability", "setting": "NCI-H661; first compound 0.8 µM", "result": 0.812}, {"measurement": "relative viability", "setting": "NCI-H661; first compound 2.53 µM", "result": 0.637}, {"measurement": "relative viability", "setting": "NCI-H358; first compound 0.08 µM", "result": 0.16}, {"measurement": "relative viability", "setting": "NCI-H358; first compound 0.253 µM", "result": 0.166}, {"measurement": "relative viability", "setting": "NCI-H358; first compound 0.8 µM", "result": 0.175}, {"measurement": "relative viability", "setting": "NCI-H358; first compound 2.53 µM", "result": 0.172}, {"measurement": "relative viability", "setting": "LCLC-97TM1; first compound 0.08 µM", "result": 0.981}, {"measurement": "relative viability", "setting": "LCLC-97TM1; first compound 0.253 µM", "result": 0.851}, {"measurement": "relative viability", "setting": "LCLC-97TM1; first compound 0.8 µM", "result": 0.964}, {"measurement": "relative viability", "setting": "LCLC-97TM1; first compound 2.53 µM", "result": 0.977}, {"measurement": "relative viability", "setting": "SW 1573; first compound 0.08 µM", "result": 0.605}, {"measurement": "relative viability", "setting": "SW 1573; first compound 0.253 µM", "result": 0.506}, {"measurement": "relative viability", "setting": "SW 1573; first compound 0.8 µM", "result": 0.43}, {"measurement": "relative viability", "setting": "SW 1573; first compound 2.53 µM", "result": 0.241}, {"measurement": "relative viability", "setting": "NCI-H522; first compound 0.08 µM", "result": 0.982}, {"measurement": "relative viability", "setting": "NCI-H522; first compound 0.253 µM", "result": 0.812}, {"measurement": "relative viability", "setting": "NCI-H522; first compound 0.8 µM", "result": 0.465}, {"measurement": "relative viability", "setting": "NCI-H522; first compound 2.53 µM", "result": 0.779}, {"measurement": "relative viability", "setting": "NCI-H1395; first compound 0.08 µM", "result": 0.4}, {"measurement": "relative viability", "setting": "NCI-H1395; first compound 0.253 µM", "result": 0.378}, {"measurement": "relative viability", "setting": "NCI-H1395; first compound 0.8 µM", "result": 0.381}, {"measurement": "relative viability", "setting": "NCI-H1395; first compound 2.53 µM", "result": 0.458}, {"measurement": "relative viability", "setting": "NCI-H2009; first compound 0.08 µM", "result": 0.31}, {"measurement": "relative viability", "setting": "NCI-H2009; first compound 0.253 µM", "result": 0.271}, {"measurement": "relative viability", "setting": "NCI-H2009; first compound 0.8 µM", "result": 0.205}, {"measurement": "relative viability", "setting": "NCI-H2009; first compound 2.53 µM", "result": 0.208}, {"measurement": "relative viability", "setting": "NCI-H650; first compound 0.08 µM", "result": 0.497}, {"measurement": "relative viability", "setting": "NCI-H650; first compound 0.253 µM", "result": 0.501}, {"measurement": "relative viability", "setting": "NCI-H650; first compound 0.8 µM", "result": 0.444}, {"measurement": "relative viability", "setting": "NCI-H650; first compound 2.53 µM", "result": 0.414}, {"measurement": "relative viability", "setting": "HCC-366; first compound 0.08 µM", "result": 0.598}, {"measurement": "relative viability", "setting": "HCC-366; first compound 0.253 µM", "result": 0.589}, {"measurement": "relative viability", "setting": "HCC-366; first compound 0.8 µM", "result": 0.824}, {"measurement": "relative viability", "setting": "HCC-366; first compound 2.53 µM", "result": 0.598}, {"measurement": "relative viability", "setting": "ABC-1; first compound 0.08 µM", "result": 0.546}, {"measurement": "relative viability", "setting": "ABC-1; first compound 0.253 µM", "result": 0.534}, {"measurement": "relative viability", "setting": "ABC-1; first compound 0.8 µM", "result": 0.467}, {"measurement": "relative viability", "setting": "ABC-1; first compound 2.53 µM", "result": 0.415}, {"measurement": "relative viability", "setting": "NCI-H1993; first compound 0.08 µM", "result": 0.52}, {"measurement": "relative viability", "setting": "NCI-H1993; first compound 0.253 µM", "result": 0.52}, {"measurement": "relative viability", "setting": "NCI-H1993; first compound 0.8 µM", "result": 0.557}, {"measurement": "relative viability", "setting": "NCI-H1993; first compound 2.53 µM", "result": 0.535}, {"measurement": "relative viability", "setting": "HCC-827; first compound 0.08 µM", "result": 0.349}, {"measurement": "relative viability", "setting": "HCC-827; first compound 0.253 µM", "result": 0.297}, {"measurement": "relative viability", "setting": "HCC-827; first compound 0.8 µM", "result": 0.393}, {"measurement": "relative viability", "setting": "HCC-827; first compound 2.53 µM", "result": 0.437}]}
